Reference: PubChem BioAssay AID2060621 (Molecular Pharmacology Branch, DTP, NCI, 2025)
Several values for one entry are separate records, joined by “and”; a condition that tells them apart may be missing. Equal values may be shown once.

Tested on: 324938-238-R-J1-PDC complex spheroids viability
Assay: Anticancer human tumor 324938-238-R-J1-PDC patient-derived bladder carcinoma cell line growth inhibition [CLK]
Details: for viability, T/C: stronger effect = lower value
Procedure, shortened: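 Patient-derived tumor cells grown as complex spheroids with HUVEC endothelial cells and mesenchymal stem cells, treated with drug combinations. Concentrations descend in half-log steps from near clinical Cmax, or from 10 microM if Cmax unknown.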

[1] = curve of first compound, second compound 0.0316 µM
[2] = curve of first compound, second compound 0.1 µM
[3] = curve of first compound, second compound 0.316 µM
[4] = curve of first compound, second compound 1 µM
[5] = curve of first compound, second compound 3.16 µM
[6] = curve of first compound, second compound 10 µM
[7] = second compound 0.0316 µM, first compound 0.0316 µM
[8] = second compound 0.0316 µM, first compound 0.1 µM
[9] = second compound 0.0316 µM, first compound 0.316 µM
[10] = second compound 0.0316 µM, first compound 1 µM
[11] = second compound 0.0316 µM, first compound 3.16 µM
[12] = second compound 0.0316 µM, first compound 10 µM
[13] = second compound 0.1 µM, first compound 0.0316 µM
[14] = second compound 0.1 µM, first compound 0.1 µM
[15] = second compound 0.1 µM, first compound 0.316 µM
[16] = second compound 0.1 µM, first compound 1 µM
[17] = second compound 0.1 µM, first compound 3.16 µM
[18] = second compound 0.1 µM, first compound 10 µM
[19] = second compound 0.316 µM, first compound 0.0316 µM
[20] = second compound 0.316 µM, first compound 0.1 µM
[21] = second compound 0.316 µM, first compound 0.316 µM
[22] = second compound 0.316 µM, first compound 1 µM
[23] = second compound 0.316 µM, first compound 3.16 µM
[24] = second compound 0.316 µM, first compound 10 µM
[25] = second compound 1 µM, first compound 0.0316 µM
[26] = second compound 1 µM, first compound 0.1 µM
[27] = second compound 1 µM, first compound 0.316 µM
[28] = second compound 1 µM, first compound 1 µM
[29] = second compound 1 µM, first compound 3.16 µM
[30] = second compound 1 µM, first compound 10 µM
[31] = second compound 3.16 µM, first compound 0.0316 µM
[32] = second compound 3.16 µM, first compound 0.1 µM
[33] = second compound 3.16 µM, first compound 0.316 µM
[34] = second compound 3.16 µM, first compound 1 µM
[35] = second compound 3.16 µM, first compound 3.16 µM
[36] = second compound 3.16 µM, first compound 10 µM
[37] = second compound 10 µM, first compound 0.0316 µM
[38] = second compound 10 µM, first compound 0.1 µM
[39] = second compound 10 µM, first compound 0.316 µM
[40] = second compound 10 µM, first compound 1 µM
[41] = second compound 10 µM, first compound 3.16 µM
[42] = second compound 10 µM, first compound 10 µM
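Note: viability read after seven days of drug exposure.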
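Throughout, for viability, T/C: 100% = DMSO vehicle control wells.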

## CC1(C)CCC(CN2CCN(c3ccc(C(=O)NS(=O)(=O)c4ccc(NCC5CCOCC5)c([N+](=O)[O-])c4)c(Oc4cnc5[nH]ccc5c4)c3)CC2)=C(c2ccc(Cl)cc2)C1 + CNC(=O)c1ccc(Nc2nc(OC3CCCC3)c3c(-c4ccc5nc(C)oc5c4)c[nH]c3n2)c(OC)c1
[1]
  IC50: 4520 nM
[2]
  IC50: < 31.6 nM
[3]
  IC50: < 31.6 nM
[4]
  IC50: < 31.6 nM
[5]
  IC50: < 31.6 nM
[6]
  IC50: < 31.6 nM
[7]
  viability, T/C: 76.8%
[8]
  viability, T/C: 78.4%
[9]
  viability, T/C: 84.1%
[10]
  viability, T/C: 83.6%
[11]
  viability, T/C: 69.4%
[12]
  viability, T/C: 6.56%
[13]
  viability, T/C: 29.6%
[14]
  viability, T/C: 25.7%
[15]
  viability, T/C: 26.6%
[16]
  viability, T/C: 19.6%
[17]
  viability, T/C: 19.8%
[18]
  viability, T/C: 4.63%
[19]
  viability, T/C: 18.9%
[20]
  viability, T/C: 14.3%
[21]
  viability, T/C: 15.2%
[22]
  viability, T/C: 13.7%
[23]
  viability, T/C: 14.6%
[24]
  viability, T/C: 4.21%
[25]
  viability, T/C: 14.7%
[26]
  viability, T/C: 21.3%
[27]
  viability, T/C: 14.7%
[28]
  viability, T/C: 14.5%
[29]
  viability, T/C: 13.2%
[30]
  viability, T/C: 7.92%
[31]
  viability, T/C: 17.9%
[32]
  viability, T/C: 14.5%
[33]
  viability, T/C: 14%
[34]
  viability, T/C: 14.8%
[35]
  viability, T/C: 13.6%
[36]
  viability, T/C: 8.16%
[37]
  viability, T/C: 14.8%
[38]
  viability, T/C: 15.1%
[39]
  viability, T/C: 15.8%
[40]
  viability, T/C: 14.7%
[41]
  viability, T/C: 14%
[42]
  viability, T/C: 7.47%

## NC(=O)C(=Cn1cnc(-c2cc(C(F)(F)F)cc(C(F)(F)F)c2)n1)c1cncnc1 + CNC(=O)c1ccc(Nc2nc(OC3CCCC3)c3c(-c4ccc5nc(C)oc5c4)c[nH]c3n2)c(OC)c1
[1]
  IC50: 60.8 nM
[2]
  IC50: < 9.49 nM
[3]
  IC50: < 9.49 nM
[4]
  IC50: < 9.49 nM
[5]
  IC50: < 9.49 nM
[6]
  IC50: < 9.49 nM
Second compound 0.0316 µM, first compound 0.00949 µM
  viability, T/C: 67.1%
Second compound 0.0316 µM, first compound 0.03 µM
  viability, T/C: 74.3%
Second compound 0.0316 µM, first compound 0.0949 µM
  viability, T/C: 36.9%
Second compound 0.0316 µM, first compound 0.3 µM
  viability, T/C: 14.3%
Second compound 0.0316 µM, first compound 0.949 µM
  viability, T/C: 8.38%
Second compound 0.0316 µM, first compound 3 µM
  viability, T/C: 3.32%
Second compound 0.1 µM, first compound 0.00949 µM
  viability, T/C: 21.3%
Second compound 0.1 µM, first compound 0.03 µM
  viability, T/C: 24.6%
Second compound 0.1 µM, first compound 0.0949 µM
  viability, T/C: 16.9%
Second compound 0.1 µM, first compound 0.3 µM
  viability, T/C: 12.7%
Second compound 0.1 µM, first compound 0.949 µM
  viability, T/C: 8.37%
Second compound 0.1 µM, first compound 3 µM
  viability, T/C: 3.77%
Second compound 0.316 µM, first compound 0.00949 µM
  viability, T/C: 15.7%
Second compound 0.316 µM, first compound 0.03 µM
  viability, T/C: 15.5%
Second compound 0.316 µM, first compound 0.0949 µM
  viability, T/C: 13.7%
Second compound 0.316 µM, first compound 0.3 µM
  viability, T/C: 7.83%
Second compound 0.316 µM, first compound 0.949 µM
  viability, T/C: 3.16%
Second compound 0.316 µM, first compound 3 µM
  viability, T/C: 2.69%
Second compound 1 µM, first compound 0.00949 µM
  viability, T/C: 12.9%
Second compound 1 µM, first compound 0.03 µM
  viability, T/C: 12.8%
Second compound 1 µM, first compound 0.0949 µM
  viability, T/C: 9.03%
Second compound 1 µM, first compound 0.3 µM
  viability, T/C: 5.74%
Second compound 1 µM, first compound 0.949 µM
  viability, T/C: 3.19%
Second compound 1 µM, first compound 3 µM
  viability, T/C: 1%
Second compound 3.16 µM, first compound 0.00949 µM
  viability, T/C: 16.2%
Second compound 3.16 µM, first compound 0.03 µM
  viability, T/C: 14.1%
Second compound 3.16 µM, first compound 0.0949 µM
  viability, T/C: 8.67%
Second compound 3.16 µM, first compound 0.3 µM
  viability, T/C: 4.86%
Second compound 3.16 µM, first compound 0.949 µM
  viability, T/C: 2.59%
Second compound 3.16 µM, first compound 3 µM
  viability, T/C: 1.1%
Second compound 10 µM, first compound 0.00949 µM
  viability, T/C: 14.4%
Second compound 10 µM, first compound 0.03 µM
  viability, T/C: 13%
Second compound 10 µM, first compound 0.0949 µM
  viability, T/C: 9.72%
Second compound 10 µM, first compound 0.3 µM
  viability, T/C: 5.02%
Second compound 10 µM, first compound 0.949 µM
  viability, T/C: 2.24%
Second compound 10 µM, first compound 3 µM
  viability, T/C: 0.98%

## CCCS(=O)(=O)Nc1ccc(F)c(C(=O)c2c[nH]c3ncc(-c4ccc(Cl)cc4)cc23)c1F + CN1CCN(c2cc(C(=O)Nc3cc4cc(-c5cnn(C)c5)ccc4cn3)ccn2)CC1
[1]
  IC50: > 10000 nM
[2]
  IC50: 8330 nM
[3]
  IC50: < 31.6 nM
[4]
  IC50: < 31.6 nM
[5]
  IC50: < 31.6 nM
[6]
  IC50: < 31.6 nM
[7]
  viability, T/C: 76.9%
[8]
  viability, T/C: 96%
[9]
  viability, T/C: 92.7%
[10]
  viability, T/C: 114%
[11]
  viability, T/C: 102%
[12]
  viability, T/C: 58.3%
[13]
  viability, T/C: 61.2%
[14]
  viability, T/C: 61.3%
[15]
  viability, T/C: 52%
[16]
  viability, T/C: 65.7%
[17]
  viability, T/C: 60.1%
[18]
  viability, T/C: 39.1%
[19]
  viability, T/C: 24.1%
[20]
  viability, T/C: 27.6%
[21]
  viability, T/C: 24.5%
[22]
  viability, T/C: 27.2%
[23]
  viability, T/C: 26%
[24]
  viability, T/C: 24.8%
[25]
  viability, T/C: 1.58%
[26]
  viability, T/C: 1.65%
[27]
  viability, T/C: 1.22%
[28]
  viability, T/C: 0.96%
[29]
  viability, T/C: 1.9%
[30]
  viability, T/C: 0.6%
[31]
  viability, T/C: 0.52%
[32]
  viability, T/C: 0.23%
[33]
  viability, T/C: 0.3%
[34]
  viability, T/C: 0.13%
[35]
  viability, T/C: 0.14%
[36]
  viability, T/C: 0.21%
[37]
  viability, T/C: 0.56%
[38]
  viability, T/C: 0.19%
[39]
  viability, T/C: 0.19%
[40]
  viability, T/C: 0.31%
[41]
  viability, T/C: 0.18%
[42]
  viability, T/C: 0.62%

## Nc1ccccc1NC(=O)c1ccc(CNC(=O)OCc2cccnc2)cc1
Compound 0.0316 µM
  viability, T/C: 90% and 75.9%
Compound 0.1 µM
  viability, T/C: 89.8% and 91.8%
Compound 0.316 µM
  viability, T/C: 83.1% and 73.8%
Compound 1 µM
  viability, T/C: 58% and 50.5%
Compound 3.16 µM
  viability, T/C: 29.4% and 33.5%
Compound 10 µM
  viability, T/C: 9.64% and 5.66%
Curve of compound
  IC50: 1420 nM and 1290 nM
